The target in assay [1] is T1, hAR (human androgen receptor) (Homo sapiens, UniProt P10275).
T1 construct: made in house; host or cells: baculovirus/Sf9 insect cells (extract)
T1 sequence (P10275 1-920): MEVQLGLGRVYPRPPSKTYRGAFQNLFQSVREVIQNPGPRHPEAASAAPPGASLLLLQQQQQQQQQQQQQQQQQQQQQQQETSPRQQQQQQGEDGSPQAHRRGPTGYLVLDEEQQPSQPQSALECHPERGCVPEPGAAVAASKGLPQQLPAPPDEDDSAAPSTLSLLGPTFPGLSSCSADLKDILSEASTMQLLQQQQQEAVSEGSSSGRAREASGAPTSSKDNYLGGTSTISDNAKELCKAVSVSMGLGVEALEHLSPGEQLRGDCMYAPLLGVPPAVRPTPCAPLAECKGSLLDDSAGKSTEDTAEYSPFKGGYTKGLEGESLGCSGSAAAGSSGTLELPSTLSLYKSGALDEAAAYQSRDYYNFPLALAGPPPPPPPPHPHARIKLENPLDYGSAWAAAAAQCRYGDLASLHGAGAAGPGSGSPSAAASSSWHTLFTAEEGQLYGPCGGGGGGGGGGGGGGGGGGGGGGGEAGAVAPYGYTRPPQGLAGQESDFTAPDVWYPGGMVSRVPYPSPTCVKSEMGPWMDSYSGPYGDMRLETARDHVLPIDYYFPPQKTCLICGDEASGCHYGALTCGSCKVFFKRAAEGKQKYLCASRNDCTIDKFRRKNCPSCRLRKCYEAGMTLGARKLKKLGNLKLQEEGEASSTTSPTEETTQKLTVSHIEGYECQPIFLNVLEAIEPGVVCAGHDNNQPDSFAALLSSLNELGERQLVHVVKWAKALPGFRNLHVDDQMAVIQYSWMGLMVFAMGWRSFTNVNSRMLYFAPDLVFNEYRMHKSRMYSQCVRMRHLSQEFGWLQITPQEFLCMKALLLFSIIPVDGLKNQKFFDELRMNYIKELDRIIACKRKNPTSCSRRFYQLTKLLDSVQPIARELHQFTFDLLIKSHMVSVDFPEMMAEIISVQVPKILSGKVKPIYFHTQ
The assay is described as follows: Competitive binding analysis on hAR extracts with 3H-DHT tracer. The method, then: The compounds of Formula I have affinity for the androgen receptor. […] The description below describes how the assay was carried out.
Competitive binding analysis was performed on baculovirus/Sf9 generated hAR extracts in the presence or absence of different concentrations of test agent and a fixed concentration of ^3H-dihydrotestosterone (^3H-DHT) as tracer. This binding assay method is a modification of a protocol previously described (Liao S., et. al. J. Steroid Biochem. 20:11-17 1984). Briefly, progressively decreasing concentrations of compounds are incubated in the presence of hAR extract (Chang et al. P.N.A.S. Vol. 89, pp. […], 1992), hydroxylapatite, and 1 nM ^3H-DHT for one hour at 4° C. Subsequently, the binding reactions are washed three times to completely remove excess unbound ^3H-DHT. hAR bound ^3H-DHT levels are determined in the presence of compounds (i.e. competitive binding) and compared to levels bound when no competitor is present (i.e. maximum binding). Compound binding affinity to the hAR is expressed as the concentration of compound at which one half of the maximum binding is inhibited. Table II below provides the results that were obtained for selected compounds (reported data is the mean of multiple tests as shown below)

Assay [2] concerns the target T2, androgen receptor in MDA-MB453-MMTV clone 54-19 cells (Homo sapiens, UniProt P10275).
T2 sequence (P10275 1-920 Q868H): T1 sequence (P10275 1-920) with Q868H
Kind of assay: AR antagonist cell assay (MMTV-luciferase reporter, 100 pM DHT). The format is cell-based. The method, then: The compounds ability to antagonize the effects of androgen on the androgen receptor were determined in a whole cell assay as described immediately below.
Experimental Procedure for AR Antagonist Cell Assay
Cell line: MDA-MB453-MMTV clone 54-19. This cell line is a stable transfected cell line with MDA-MB453 cell background (a human breast tumor cell line expressing androgen receptor). A MMTV minimal promoter containing ARE was first cloned in front of a firefly luciferase reporter gene. Then the cascade was cloned into transfection vector pUV120puro. Electroporation method was used for transfecting MDA-MB-453 cell. Puromycin resistant stable cell line was selected. Cell Culture Media and Reagents:
Culture medium: DMEM (high glucose, Gibco cat #: 11960-044), 10% FBS, and 1% L-glutamine
Plating medium: DMEM (phenol red free), 10% charcoal treated HyClone serum, 1% L-glutamine
Assay medium: DMEM (phenol red free), 1% charcoal treated HyClone serum, 1% L-glutamine, and 1% penicillin/streptomycin
3X luciferase buffer: 2% beta-mercaptoethanol, 0.6% ATP, 0.0135% luciferine in cell lysis buffer
• 1. Cells are maintained in culture medium, splitting cells when they reach 80-90% confluence • 2. To test compounds, 10,000 cells/well are plated to opaque 96 cell culture plate in 100 ul/well plating medium, culture for overnight at 37° C. in cell culture incubator • 3. Carefully remove plating medium, then add 80 ul/well of pre-warmed assay medium, add 10 ul/well testing compound (final concentration at) 1000 nM, 200 nM, 40 nM, 8 nM, 1.6 nM, and 0.32 nM), incubate at 37° C. for 30 minutes • 4. Add 10 ul/well freshly prepared DHT (final concentration at 100 pM) to each well, incubate at 37° C. for 17 hr (overnight) • 5. Add 50 ul/well 3X luciferase buffer, incubate at room temperature for 5 minutes, then count on Luminometer
The fold induction over background by 100 pM DHT in the absence of testing compounds is standardized as 100% and experimental result is expressed as percentage of inhibition by testing compounds.
The results are reported as the mean of multiple tests as described below (the numbers of tests are indicated in the footnote). N.D. denotes that the compound was not tested.
(A reporter such as luciferase makes a cellular process visible.)

[3] abbreviates: baculovirus/Sf9 hAR extract, 1 nM 3H-DHT, one hour at 4° C, mean of multiple tests, read-out: AR Binding IC50.
Setting [4] is: MDA-MB453-MMTV clone 54-19, inhibition of 100 pM DHT induced luciferase, 17 hr; mean of multiple tests; read-out: AR Cell IC50.
Where [5] appears, read: read-out: AR Cell IC50; MDA-MB453-MMTV clone 54-19, inhibition of 100 pM DHT induced luciferase, 17 hr; mean of multiple tests.

Substitutions are numbered along the chain they refer to. Read-outs that look alike come from different tables or passages of the source.

In the case of `CC(CCC(C)Oc1ccc(C#N)c(C(F)(F)F)c1)Oc1ccc(C#N)c(C(F)(F)F)c1` (stereo in doubt) [Example 23, 4,4′-[(2S,5S)-Hexane-2,5-diylbis(oxy)]bis[2-(trifluoromethyl)benzonitrile]], the half-inhibitory concentration (IC50) (commonly the concentration at which inhibition is half-maximal) in assay [1] (setting [3]) was determined as 180 nM; in assay [2] (setting [4]), 202 nM.

Turning to `CCCC(COc1ccc(C#N)c(C(F)(F)F)c1)Oc1ccc(C#N)c(C(F)(F)F)c1` (stereo not shown) [Example 4, 4,4′-[Pentane-1,2-diylbis(oxy)]bis[2-(trifluoromethyl)benzonitrile]], the IC50 is 630 nM in assay [1] (setting [3]) and over 1000 nM in assay [2] (setting [4]).

For the compound `COCC(COc1ccc(C#N)c(C(F)(F)F)c1)Oc1ccc(C#N)c(C(F)(F)F)c1` (stereo not shown) [Example 5, 4,4′-[(3-Methoxypropane-1,2-diyl)bis(oxy)]bis[2-(trifluoromethyl)benzonitrile]], the IC50 in assay [1] was 56 nM; in assay [2] (setting [4]), 187 nM.

With `CC(C)NCC(COc1ccc(C#N)c(C(F)(F)F)c1)Oc1ccc(C#N)c(C(F)(F)F)c1` (stereo not shown) [Example 7], the IC50 in assay [1] (setting [3]) is 319 nM; in assay [2] (setting [4]), over 1000 nM.

For `CCCC(Oc1ccc(C#N)c(C(F)(F)F)c1)C(CC)COc1ccc(C#N)c(C(F)(F)F)c1` (stereo not shown) [Example 19, 4-{[3-(4-Cyanophenoxy)-2-ethylhexyl]oxy}bis[2-(trifluoromethyl)benzonitrile]], the IC50 in assay [1] (setting [3]) is 216 nM; in assay [2] (setting [4]), over 1000 nM.

Consider `CC(CCOc1ccc(C#N)c(C(F)(F)F)c1)CCOc1ccc(C#N)c(C(F)(F)F)c1` [Example 26, 4,4′-[(3-Methylpentane-1,5-diyl)bis(oxy)]bis[2-(trifluoromethyl)benzonitrile]], for which the IC50 in assay [1] (setting [3]) amounted to 156 nM; in assay [2] (setting [4]), 212 nM.

In the case of `CC(C)(CCOc1ccc(C#N)c(C(F)(F)F)c1)Oc1ccc(C#N)c(C(F)(F)F)c1` [Example 18, 4,4′-[(3-Methylbutane-1,3-diyl)bis(oxy)]bis[2-(trifluoromethyl)benzonitrile]], the IC50 is 410 nM in assay [1] (setting [3]) and over 1000 nM in assay [2] (setting [4]).

Regarding `CC(CCOc1ccc(C#N)c(C(F)(F)F)c1)Oc1ccc(C#N)c(C(F)(F)F)c1` (stereo not shown) [Example 13, 4,4′-[Butane-1,3-diylbis(oxy)]bis[2-(trifluoromethyl)benzonitrile]], the IC50 in assay [1] was 10 nM; in assay [2] (setting [5]), 100 nM.

`C[C@@H](C[C@H](C)Oc1ccc(C#N)c(C(F)(F)F)c1)Oc1ccc(C#N)c(C(F)(F)F)c1` (stereo in doubt) [Example 20, 4,4′-[(2S,4S)-Pentane-2,4-diylbis(oxy)]bis[2-(trifluoromethyl)benzonitrile]]: the IC50 in assay [1] stood at 17 nM; in assay [2] (setting [4]), 159 nM.

Regarding `C=CCC(CCOc1ccc(C#N)c(C(F)(F)F)c1)Oc1ccc(C#N)c(C(F)(F)F)c1` (stereo not shown) [Example 17, 4,4′-[Hex-1-ene-4,6-diylbis(oxy)]bis[2-(trifluoromethyl)benzonitrile]], the IC50 is 47 nM in assay [1] and over 1000 nM in assay [2] (setting [4]).

For `CC(C)CCCC(COc1ccc(C#N)c(C(F)(F)F)c1)Oc1ccc(C#N)c(C(F)(F)F)c1` (stereo not shown) [Example 8], the values for the IC50 in assay [1] (setting [3]) and in assay [2] (setting [4]) were 967 nM and over 1000 nM, respectively.

Take `COC[C@H](COc1ccccc1)Oc1ccc(C#N)c(C(F)(F)F)c1` [Example 30, (1R)-4-(1-Methoxymethyl-2-phenoxy-ethoxy)-2-trifluoromethyl-benzonitrile]: the IC50 worked out at 30 nM in assay [1] and 40 nM in assay [2] (setting [5]).

In the case of `C=CC(COc1ccc(C#N)c(C(F)(F)F)c1)Oc1ccc(C#N)c(C(F)(F)F)c1` (stereo not shown) [Example 3, 4,4′-[But-1-ene-3,4-diylbis(oxy)]bis[2-(trifluoromethyl)benzonitrile]], the IC50 came to 115 nM in assay [1] (setting [3]) and 457 nM in assay [2] (setting [4]).

As to `C[C@@H](CCOc1ccc(C#N)c(C(F)(F)F)c1)Oc1ccc(C#N)c(C(F)(F)F)c1` [Example 15, 4-({(3S)-3-[4-Cyano-3-(trifluoromethyl)phenoxy]butyl}oxy)-2-(trifluoromethyl)benzonitrile], the IC50 in assay [1] is 49 nM; in assay [2] (setting [4]), 257 nM.

With `C[C@@H](Oc1ccc(C#N)c(C(F)(F)F)c1)[C@@H](C)Oc1ccc(C#N)c(C(F)(F)F)c1` [Example 2, 4,4′-[(2R,3R)-Butane-2,3-diylbis(oxy)]bis[2-(trifluoromethyl)benzonitrile]], the results for the IC50 in assay [1] and in assay [2] (setting [5]) were 34 nM and 67 nM, respectively.

With `CC(COc1ccc(C#N)c(C(F)(F)F)c1)C(C)Oc1ccc(C#N)c(C(F)(F)F)c1` (stereo not shown) [Example 16, 4-{3-[4-Cyano-3-(trifluoromethyl)phenoxy]-1,2-dimethylpropoxy}-2-(trifluoromethyl)benzonitrile], in assay [1] (setting [3]), the IC50 was found to be 372 nM.

The record behind these values is patent US7473711B2, “Androgen modulators” (Pfizer Inc., priority 2004, dated 2009).
